Experimental data taken from patent publication US9738634B2, “Heterocyclic amide compound and herbicide” (SYNGENTA PARTICIPATIONS AG, priority 2013, dated 2017).

Columns and labels:
Format in all cases: in vivo
[1] = test system: barnyard grass; test: Test Example 1: weedkilling efficacy, preemergent weed treatment in the submerged state; A: barnyard grass; settings: treatment dosage 252 g/ha
How it was run: (§1)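 Pots of alluvial soil flooded 4 cm deep, sown with barnyard grass, bulrush and oval-leafed pondweed and transplanted with 2.5-leaf rice. Emulsified compound applied to the water surface on sowing day at stated g/ha; greenhouse 25–30 °C, effects assessed 3 weeks after treatment.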

[2] = test system: bulrush; test: Test Example 1: weedkilling efficacy, preemergent weed treatment in the submerged state; B: bulrush; settings: treatment dosage 252 g/ha
How it was run: as §1

[3] = test system: oval-leafed pondweed; test: Test Example 1: weedkilling efficacy, preemergent weed treatment in the submerged state; C: oval-leafed pondweed; settings: treatment dosage 252 g/ha
How it was run: as §1

[4] = test system: transplanted rice; test: Test Example 1: preemergent weed treatment in the submerged state, effect on crop; a: transplanted rice; settings: treatment dosage 252 g/ha
How it was run: as §1

[5] = test system: barnyard grass; test: Test Example 2: weedkilling efficacy, growth period weed treatment in the submerged state; A: barnyard grass; settings: treatment dosage 252 g/ha
How it was run: (§2)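 Barnyard grass, bulrush and oval-leafed pondweed sown in alluvial soil under 4 cm flooding, greenhouse 25 to 30° C. At 1-2 leaf stage, water-diluted emulsion applied to the water surface at stated g/ha dosages; effects scored 3 weeks later.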

[6] = test system: bulrush; test: Test Example 2: weedkilling efficacy, growth period weed treatment in the submerged state; B: bulrush; settings: treatment dosage 252 g/ha
How it was run: as §2

[7] = test system: oval-leafed pondweed; test: Test Example 2: weedkilling efficacy, growth period weed treatment in the submerged state; C: oval-leafed pondweed; settings: treatment dosage 252 g/ha
How it was run: as §2

[8] = test system: crabgrass; test: Test Example 3: weedkilling efficacy through soil treatment; D: crabgrass; settings: treatment dosage 315 g/ha
How it was run: (§3)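 Crop and weed responses were judged three weeks after a uniform surface spray of the water-diluted emulsion at the given g/ha rate. Seeds sat beneath about 1.5 cm of sterilized diluvial soil, and boxes stood in a greenhouse at 25 to 30° C.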

[9] = test system: green foxtail; test: Test Example 3: weedkilling efficacy through soil treatment; E: green foxtail; settings: treatment dosage 315 g/ha
How it was run: as §3

[10] = test system: black-grass; test: Test Example 3: weedkilling efficacy through soil treatment; H: black-grass; settings: treatment dosage 315 g/ha
How it was run: as §3

[11] = test system: Italian ryegrass; test: Test Example 3: weedkilling efficacy through soil treatment; I: Italian ryegrass; settings: treatment dosage 315 g/ha
How it was run: as §3

[12] = test system: Indian mallow; test: Test Example 3: weedkilling efficacy through soil treatment; K: Indian mallow; settings: treatment dosage 315 g/ha
How it was run: as §3

[13] = test system: redroot pigweed; test: Test Example 3: weedkilling efficacy through soil treatment; L: redroot pigweed; settings: treatment dosage 315 g/ha
How it was run: as §3

[14] = test system: chickweed; test: Test Example 3: weedkilling efficacy through soil treatment; N: chickweed; settings: treatment dosage 315 g/ha
How it was run: as §3

[15] = test system: birds-eye speedwell; test: Test Example 3: weedkilling efficacy through soil treatment; p: birds-eye speedwell; settings: treatment dosage 315 g/ha
How it was run: as §3

[16] = test system: directly sown rice; test: Test Example 3: soil treatment, effect on crop; b: directly sown rice; settings: treatment dosage 315 g/ha
How it was run: as §3

[17] = test system: corn; test: Test Example 3: soil treatment, effect on crop; c: corn; settings: treatment dosage 315 g/ha
How it was run: as §3

[18] = test system: soybean; test: Test Example 3: soil treatment, effect on crop; d: soybean; settings: treatment dosage 315 g/ha
How it was run: as §3

[19] = test system: wheat; test: Test Example 3: soil treatment, effect on crop; e: wheat; settings: treatment dosage 315 g/ha
How it was run: as §3

[20] = test system: beet; test: Test Example 3: soil treatment, effect on crop; f: beet; settings: treatment dosage 315 g/ha
How it was run: as §3

[21] = test system: crabgrass; test: Test Example 4: weedkilling efficacy by foliar treatment; D: crabgrass; settings: treatment dosage 315 g/ha
Experimental: (§4) Testing of Weedkilling Efficacy by Foliar Treatment
(§5) Sterilized diluvial soil was introduced into 21 cm long, 13 cm wide, 7 cm deep plastic boxes, and seeds of crabgrass, green foxtail, barnyard grass, wild oat, black-grass, Italian ryegrass, common wind-grass, Indian mallow, redroot pigweed, fig-leafed goosefoot, chickweed, catchweed, birds-eye speedwell, corn, soybean, rice, wheat, beet and rapeseed were each spot-sown, and covered with about 1.5 cm of soil, then the plants were grown in a greenhouse at 25 to 30° C.
(§6) After they had grown for 14 days, emulsions of compounds of the present invention prepared according to compounding example 2 were diluted with water to give the specified dosages, and applied uniformly onto the stem and leaf parts with a small sprayer. 3 weeks after the pesticide treatment the effect on each type of plant was investigated on the basis of the assessment criteria of test example 1.
(§7) A: barnyard grass, B: bulrush, C: oval-leafed pondweed, D: crabgrass, E: green foxtail, F: barnyard grass, G: wild oat, H: black-grass, I: Italian ryegrass, J: common wind-grass, K: Indian mallow, L: redroot pigweed, M: fig-leafed goosefoot, N: chickweed, O: catchweed, p: birds-eye speedwell, a: transplanted rice, b: directly sown rice, c: corn, d: soybean, e: wheat, f: beet, g: rapeseed
(§8) Further, pesticide dosage (g/ha) indicates the concentration regulated such that treatment was with only the stated number of grams (g), when calculated per hectare (ha).

[22] = test system: green foxtail; test: Test Example 4: weedkilling efficacy by foliar treatment; E: green foxtail; settings: treatment dosage 315 g/ha
Experimental: as §4, §5, §6, §7, §8

[23] = test system: black-grass; test: Test Example 4: weedkilling efficacy by foliar treatment; H: black-grass; settings: treatment dosage 315 g/ha
Experimental: as §4, §5, §6, §7, §8

[24] = test system: Italian ryegrass; test: Test Example 4: weedkilling efficacy by foliar treatment; I: Italian ryegrass; settings: treatment dosage 315 g/ha
Experimental: as §4, §5, §6, §7, §8

[25] = test system: Indian mallow; test: Test Example 4: weedkilling efficacy by foliar treatment; K: Indian mallow; settings: treatment dosage 315 g/ha
Experimental: as §4, §5, §6, §7, §8

[26] = test system: redroot pigweed; test: Test Example 4: weedkilling efficacy by foliar treatment; L: redroot pigweed; settings: treatment dosage 315 g/ha
Experimental: as §4, §5, §6, §7, §8

[27] = test system: fig-leafed goosefoot; test: Test Example 4: weedkilling efficacy by foliar treatment; M: fig-leafed goosefoot; settings: treatment dosage 315 g/ha
Experimental: as §4, §5, §6, §7, §8

[28] = test system: chickweed; test: Test Example 4: weedkilling efficacy by foliar treatment; N: chickweed; settings: treatment dosage 315 g/ha
Experimental: as §4, §5, §6, §7, §8

[29] = test system: catchweed; test: Test Example 4: weedkilling efficacy by foliar treatment; O: catchweed; settings: treatment dosage 315 g/ha
Experimental: as §4, §5, §6, §7, §8

[30] = test system: birds-eye speedwell; test: Test Example 4: weedkilling efficacy by foliar treatment; p: birds-eye speedwell; settings: treatment dosage 315 g/ha
Experimental: as §4, §5, §6, §7, §8

[31] = test system: directly sown rice; test: Test Example 4: foliar treatment, effect on crop; b: directly sown rice; settings: treatment dosage 315 g/ha
Experimental: as §4, §5, §6, §7, §8

[32] = test system: corn; test: Test Example 4: foliar treatment, effect on crop; c: corn; settings: treatment dosage 315 g/ha
Experimental: as §4, §5, §6, §7, §8

[33] = test system: soybean; test: Test Example 4: foliar treatment, effect on crop; d: soybean; settings: treatment dosage 315 g/ha
Experimental: as §4, §5, §6, §7, §8

[34] = test system: wheat; test: Test Example 4: foliar treatment, effect on crop; e: wheat; settings: treatment dosage 315 g/ha
Experimental: as §4, §5, §6, §7, §8

[35] = test system: beet; test: Test Example 4: foliar treatment, effect on crop; f: beet; settings: treatment dosage 315 g/ha
Experimental: as §4, §5, §6, §7, §8

## COc1nsc(NC(=O)C(C)(C)N2COC(C)=C(c3ccccc3)C2=O)n1 [B-1-15]
[1]
  A (barnyard grass) weedkilling efficacy grade: 5 (weed kill ratio 90% or more, (practically complete withering))
[2]
  B (bulrush) weedkilling efficacy grade: 5 (weed kill ratio 90% or more, (practically complete withering))
[3]
  C (oval-leafed pondweed) weedkilling efficacy grade: 5 (weed kill ratio 90% or more, (practically complete withering))
[4]
  a (transplanted rice) effect on crop grade: 0 (weed kill ratio 5% or less (practically no effect))
[5]
  A (barnyard grass) weedkilling efficacy grade: 4 (weed kill ratio 70% or more, less than 90%)
[6]
  B (bulrush) weedkilling efficacy grade: 5 (weed kill ratio 90% or more, (practically complete withering))
[7]
  C (oval-leafed pondweed) weedkilling efficacy grade: 5 (weed kill ratio 90% or more, (practically complete withering))
[8]
  D (crabgrass) weedkilling efficacy grade: 5 (weed kill ratio 90% or more, (practically complete withering))
[9]
  E (green foxtail) weedkilling efficacy grade: 5 (weed kill ratio 90% or more, (practically complete withering))
[10]
  H (black-grass) weedkilling efficacy grade: 5 (weed kill ratio 90% or more, (practically complete withering))
[11]
  I (Italian ryegrass) weedkilling efficacy grade: 5 (weed kill ratio 90% or more, (practically complete withering))
[12]
  K (Indian mallow) weedkilling efficacy grade: 4 (weed kill ratio 70% or more, less than 90%)
[13]
  L (redroot pigweed) weedkilling efficacy grade: 5 (weed kill ratio 90% or more, (practically complete withering))
[14]
  N (chickweed) weedkilling efficacy grade: 5 (weed kill ratio 90% or more, (practically complete withering))
[15]
  P (birds-eye speedwell) weedkilling efficacy grade: 5 (weed kill ratio 90% or more, (practically complete withering))
[16]
  b (directly sown rice) effect on crop grade: 5 (weed kill ratio 90% or more, (practically complete withering))
[17]
  c (corn) effect on crop grade: 0 (weed kill ratio 5% or less (practically no effect))
[18]
  d (soybean) effect on crop grade: 0 (weed kill ratio 5% or less (practically no effect))
[19]
  e (wheat) effect on crop grade: 4 (weed kill ratio 70% or more, less than 90%)
[20]
  f (beet) effect on crop grade: 4 (weed kill ratio 70% or more, less than 90%)
[21]
  D (crabgrass) weedkilling efficacy grade: 5 (weed kill ratio 90% or more, (practically complete withering))
[22]
  E (green foxtail) weedkilling efficacy grade: 5 (weed kill ratio 90% or more, (practically complete withering))
[23]
  H (black-grass) weedkilling efficacy grade: 5 (weed kill ratio 90% or more, (practically complete withering))
[24]
  I (Italian ryegrass) weedkilling efficacy grade: 4 (weed kill ratio 70% or more, less than 90%)
[25]
  K (Indian mallow) weedkilling efficacy grade: 5 (weed kill ratio 90% or more, (practically complete withering))
[26]
  L (redroot pigweed) weedkilling efficacy grade: 5 (weed kill ratio 90% or more, (practically complete withering))
[27]
  M (fig-leafed goosefoot) weedkilling efficacy grade: 3 (weed kill ratio 40% or more, less than 70%)
[28]
  N (chickweed) weedkilling efficacy grade: 4 (weed kill ratio 70% or more, less than 90%)
[29]
  O (catchweed) weedkilling efficacy grade: 4 (weed kill ratio 70% or more, less than 90%)
[30]
  P (birds-eye speedwell) weedkilling efficacy grade: 4 (weed kill ratio 70% or more, less than 90%)
[31]
  b (directly sown rice) effect on crop grade: 4 (weed kill ratio 70% or more, less than 90%)
[32]
  c (corn) effect on crop grade: 4 (weed kill ratio 70% or more, less than 90%)
[33]
  d (soybean) effect on crop grade: 4 (weed kill ratio 70% or more, less than 90%)
[34]
  e (wheat) effect on crop grade: 3 (weed kill ratio 40% or more, less than 70%)
[35]
  f (beet) effect on crop grade: 4 (weed kill ratio 70% or more, less than 90%)
